Source: US20100273701A1, “USE OF SALUSIN BETA ALONE OR IN COMBINATION WITH OCTREOTIDE AS A THERAPEUTIC AGENT” (priority 2007, published 2010)

Experiments:
HIV-1III8 = type: cell-based
murine spleen cells = assay: Th1/Th2 cytokine profiling assay; type: cell-based, Balb/c mice; settings: 10 micrograms per ml, Ovalbumin restimulation, 72 hours; for production of IL-2 in murine spleen cells (induced / increased by): combination 0.95 mole peptide 1 and 1.05 mole peptide 2
HUVEC = assay: Endothelial tube formation assay; type: cell-based, human; settings: 10 micrograms per ml; 20 hours; combination peptide 1: peptide 2 1.10 mole: 0.90 mole
Text: Positive control was vehicle only. […] Raw data were expressed as average tubule […] ±standard deviation.

HCMV strain AD169 = assay: HCMV plaque formation assay in MRC-5 cells; settings: for inhibition of HCMV plaque formation as compared to the virus control experiment: 10 micrograms per ml, 7-10 days
Streptococcus pneumoniae = settings: 10 micrograms per ml; read visually
[1] = tested on: Primary Human endothelial cells (HUVEC); assay: Endothelial cell migration assay; type: cell-based; settings: 10 micrograms per ml, 22 hours
Human A549 cells = assay: Apoptosis prevention assay (C2 ceramide, Annexin-5); type: cell-based; settings: 10 micrograms per ml, 30 min pretreatment, combination 0.95 mole peptide 1 and 1.05 mole peptide 2
[2] = tested on: hepatitis B virus (HBV) ayw strain; assay: HBV experimental assay system, HepG2-2.2.15 cells, TaqMan PCR of secreted HBV DNA; type: cell-based; settings: 10 micrograms per ml, six days, combination 0.95 mole peptide 1 and 1.05 mole peptide 2

Cc1cn([C@H]2C[C@H](N=[N+]=[N-])[C@@H](CO)O2)c(=O)[nH]c1=O [AZT]
antiviral activity of positive control compounds (HIV-1) (HIV-1III8): expected levels of antiviral activity

Ala-lle-Phe-Ile-Phe-Ile-Arg-Trp-Leu-Leu-Lys-Leu-Gly-His-His-Gly-Arg-Ala-Pro-Pro-OH [Peptide 1]
change of the production of IL-4 in murine spleen cells (murine spleen cells): did not significantly change
change of the production of IL-5 in murine spleen cells (murine spleen cells): did not significantly change
change of the production of TNF-alpha in murine spleen cells (murine spleen cells): did not significantly change
production of IFN-γ in murine spleen cells (decreased by) (murine spleen cells): did not significantly change
production of IL-2 in murine spleen cells (induced / increased by) (murine spleen cells): 156%
inhibition of the tube formation of human endothelial cells (HUVEC): 23%
inhibition of HCMV plaque formation as compared to the virus control experiment (HCMV strain AD169): did not inhibit
inhibition of the growth of Streptococcus pneumoniae (Streptococcus pneumoniae): no inhibitory effects
inhibition of the migration of human endothelial cells ([1]; combination peptide 1: peptide 2 1.10 mole: 0.90 mole): 19%
reduction of the ceramide-induced apoptosis on human lung cells (Human A549 cells): 28.2%
inhibition of HBV replication as compared to the virus control infection [2]: 44.6%

CC(C)(C)NC(=O)[C@@H]1CN(Cc2cccnc2)CCN1C[C@@H](O)C[C@@H](Cc1ccccc1)C(=O)N[C@H]1c2ccccc2C[C@H]1O [indinavir]
antiviral activity of positive control compounds (HIV-1) (HIV-1III8): expected levels of antiviral activity

C[C@@H](O)[C@@H]1NC(=O)[C@H](CCCCN)NC(=O)[C@@H](Cc2c[nH]c3ccccc23)NC(=O)[C@H](Cc2ccccc2)NC(=O)[C@@H](NC(=O)[C@H](N)Cc2ccccc2)CSSC[C@@H](C(=O)N[C@H](CO)[C@@H](C)O)NC1=O [Peptide 2, D-Phe-Cys-Phe-D-Trp-Lys-Thr-Cys-L-threoninol]
change of the production of IL-4 in murine spleen cells (murine spleen cells): did not significantly change
change of the production of IL-5 in murine spleen cells (murine spleen cells): did not significantly change
change of the production of TNF-alpha in murine spleen cells (murine spleen cells): did not significantly change
production of IFN-γ in murine spleen cells (decreased by) (murine spleen cells): 44%
production of IL-2 in murine spleen cells (induced / increased by) (murine spleen cells): 59.5%
inhibition of the tube formation of human endothelial cells (HUVEC): 8%
inhibition of HCMV plaque formation as compared to the virus control experiment (HCMV strain AD169): 2.9%
inhibition of the growth of Streptococcus pneumoniae (Streptococcus pneumoniae): 100%
increase of the migration of endothelial cells [1]: 24%
reduction of the ceramide-induced apoptosis on human lung cells (Human A549 cells): did not reduce
inhibition of HBV replication as compared to the virus control infection [2]: 13.4%

Nc1nc(O)c2ncn(COC(CO)CO)c2n1 [Ganciclovir]
antiviral activity of positive control compound (HCMV) (HCMV strain AD169; positive control): expected levels of antiviral activity
